Reference: the supplement of paper PMC10307832

Key:
Assay in all cases: relative viability (nuclei count vs DMSO), 5 days (fraction); higher = more cells survive
RERF-LC-KJ = tested on: RERF-LC-KJ
Procedure, shortened: (§1)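 Lung cancer cell lines were pin-tool dosed in 1536-well plates on the day after seeding, with either a lone drug or a fixed anchor-drug dose plus five library-drug doses (not always all listed) in √10 steps. Nuclei were counted on 4× images after 5 days. Relative viability is the ratio of treated-well to vehicle-well nuclei counts, with each value a median of duplicate plates.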

NCI-H1651 = tested on: NCI-H1651
Procedure, shortened: as §1

CAL-12T = tested on: CAL-12T
Procedure, shortened: as §1

EPLC-272H = tested on: EPLC-272H
Procedure, shortened: as §1

ChaGo-K-1 = tested on: ChaGo-K-1
Procedure, shortened: as §1

HCC-78 = tested on: HCC-78
Procedure, shortened: as §1

NCI-H1734 = tested on: NCI-H1734
Procedure, shortened: as §1

NCI-H460 = tested on: NCI-H460
Procedure, shortened: as §1

NCI-H1944 = tested on: NCI-H1944
Procedure, shortened: as §1

NCI-H3122 = tested on: NCI-H3122
Procedure, shortened: as §1

NCI-H2087 = tested on: NCI-H2087
Procedure, shortened: as §1

UMC-11 = tested on: UMC-11
Procedure, shortened: as §1

NCI-H2228 = tested on: NCI-H2228
Procedure, shortened: as §1

NCI-H1793 = tested on: NCI-H1793
Procedure, shortened: as §1

ABC-1 = tested on: ABC-1
Procedure, shortened: as §1

NCI-H1395 = tested on: NCI-H1395
Procedure, shortened: as §1

NCI-H2170 = tested on: NCI-H2170
Procedure, shortened: as §1

LU99A = tested on: LU99A
Procedure, shortened: as §1

HCC-366 = tested on: HCC-366
Procedure, shortened: as §1

LC-2-ad = tested on: LC-2-ad
Procedure, shortened: as §1

NCI-H2405 = tested on: NCI-H2405
Procedure, shortened: as §1

PC-3 [JPC-3] = tested on: PC-3 [JPC-3]
Procedure, shortened: as §1

LOU-NH91 = tested on: LOU-NH91
Procedure, shortened: as §1

NCI-H1755 = tested on: NCI-H1755
Procedure, shortened: as §1

COc1cc(N2CCC(C(N)=O)CC2)ccc1Nc1nc(N)c(Cl)c(Nc2ccccc2S(=O)(=O)C(C)C)n1 [HG-5-88-01] + Cc1cc(Nc2cc(N3CCN(C)CC3)nc(Sc3ccc(NC(=O)C4CC4)cc3)n2)n[nH]1 [Tozasertib] (partner 0.1 µM)
relative viability (RERF-LC-KJ; first compound 0.04 µM): 0.58 | relative viability (RERF-LC-KJ; first compound 0.1265 µM): 0.509 | relative viability (RERF-LC-KJ; first compound 0.4 µM): 0.436 | relative viability (RERF-LC-KJ; first compound 1.265 µM): 0.373 | relative viability (RERF-LC-KJ; first compound 4 µM): 0.174 | relative viability (NCI-H1651; first compound 0.04 µM): 0.71 | relative viability (NCI-H1651; first compound 0.1265 µM): 0.745 | relative viability (NCI-H1651; first compound 0.4 µM): 0.7 | relative viability (NCI-H1651; first compound 1.265 µM): 0.388 | relative viability (NCI-H1651; first compound 4 µM): 0.455 | relative viability (CAL-12T; first compound 0.04 µM): 0.274 | relative viability (CAL-12T; first compound 0.1265 µM): 0.359 | relative viability (CAL-12T; first compound 0.4 µM): 0.289 | relative viability (CAL-12T; first compound 1.265 µM): 0.199 | relative viability (CAL-12T; first compound 4 µM): 0.243 | relative viability (EPLC-272H; first compound 0.04 µM): 0.257 | relative viability (EPLC-272H; first compound 0.1265 µM): 0.301 | relative viability (EPLC-272H; first compound 0.4 µM): 0.323 | relative viability (EPLC-272H; first compound 1.265 µM): 0.141 | relative viability (EPLC-272H; first compound 4 µM): 0.063 | relative viability (ChaGo-K-1; first compound 0.04 µM): 0.213 | relative viability (ChaGo-K-1; first compound 0.1265 µM): 0.25 | relative viability (ChaGo-K-1; first compound 0.4 µM): 0.155 | relative viability (ChaGo-K-1; first compound 1.265 µM): 0.229 | relative viability (ChaGo-K-1; first compound 4 µM): 0.211 | relative viability (HCC-78; first compound 0.04 µM): 0.428 | relative viability (HCC-78; first compound 0.1265 µM): 0.315 | relative viability (HCC-78; first compound 0.4 µM): 0.424 | relative viability (HCC-78; first compound 1.265 µM): 0.231 | relative viability (HCC-78; first compound 4 µM): 0.279 | relative viability (NCI-H1734; first compound 0.04 µM): 0.267 | relative viability (NCI-H1734; first compound 0.1265 µM): 0.235 | relative viability (NCI-H1734; first compound 0.4 µM): 0.225 | relative viability (NCI-H1734; first compound 1.265 µM): 0.243 | relative viability (NCI-H1734; first compound 4 µM): 0.27 | relative viability (NCI-H460; first compound 0.04 µM): 0.722 | relative viability (NCI-H460; first compound 0.1265 µM): 0.423 | relative viability (NCI-H460; first compound 0.4 µM): 0.255 | relative viability (NCI-H460; first compound 1.265 µM): 0.0498 | relative viability (NCI-H460; first compound 4 µM): 0.064 | relative viability (NCI-H1944; first compound 0.04 µM): 0.268 | relative viability (NCI-H1944; first compound 0.1265 µM): 0.274 | relative viability (NCI-H1944; first compound 0.4 µM): 0.261 | relative viability (NCI-H1944; first compound 1.265 µM): 0.239 | relative viability (NCI-H1944; first compound 4 µM): 0.235 | relative viability (NCI-H3122; first compound 0.04 µM): 0.221 | relative viability (NCI-H3122; first compound 0.1265 µM): 0.146 | relative viability (NCI-H3122; first compound 0.4 µM): 0.08 | relative viability (NCI-H3122; first compound 1.265 µM): 0.112 | relative viability (NCI-H3122; first compound 4 µM): 0.0832 | relative viability (NCI-H2087; first compound 0.04 µM): 0.266 | relative viability (NCI-H2087; first compound 0.1265 µM): 0.203 | relative viability (NCI-H2087; first compound 0.4 µM): 0.262 | relative viability (NCI-H2087; first compound 1.265 µM): 0.22 | relative viability (NCI-H2087; first compound 4 µM): 0.14 | relative viability (UMC-11; first compound 0.04 µM): 0.213 | relative viability (UMC-11; first compound 0.1265 µM): 0.205 | relative viability (UMC-11; first compound 1.265 µM): 0.192 | relative viability (UMC-11; first compound 4 µM): 0.191 | relative viability (NCI-H2228; first compound 0.04 µM): 0.259 | relative viability (NCI-H2228; first compound 0.1265 µM): 0.13 | relative viability (NCI-H2228; first compound 0.4 µM): 0.159 | relative viability (NCI-H2228; first compound 1.265 µM): 0.111 | relative viability (NCI-H2228; first compound 4 µM): 0.133 | relative viability (NCI-H1793; first compound 0.1265 µM): 0.313 | relative viability (NCI-H1793; first compound 0.4 µM): 0.293 | relative viability (NCI-H1793; first compound 4 µM): 0.216 | relative viability (ABC-1; first compound 0.04 µM): 0.15 | relative viability (ABC-1; first compound 0.1265 µM): 0.204 | relative viability (ABC-1; first compound 0.4 µM): 0.172 | relative viability (ABC-1; first compound 1.265 µM): 0.154 | relative viability (ABC-1; first compound 4 µM): 0.179 | relative viability (NCI-H1395; first compound 0.04 µM): 0.79 | relative viability (NCI-H1395; first compound 0.1265 µM): 0.692 | relative viability (NCI-H1395; first compound 0.4 µM): 0.859 | relative viability (NCI-H1395; first compound 1.265 µM): 0.716 | relative viability (NCI-H1395; first compound 4 µM): 0.65 | relative viability (NCI-H2170; first compound 0.04 µM): 0.768 | relative viability (NCI-H2170; first compound 0.1265 µM): 0.67 | relative viability (NCI-H2170; first compound 0.4 µM): 0.678 | relative viability (NCI-H2170; first compound 1.265 µM): 0.464 | relative viability (NCI-H2170; first compound 4 µM): 0.635 | relative viability (LU99A; first compound 0.04 µM): 0.29 | relative viability (LU99A; first compound 0.1265 µM): 0.301 | relative viability (LU99A; first compound 0.4 µM): 0.264 | relative viability (LU99A; first compound 1.265 µM): 0.267 | relative viability (LU99A; first compound 4 µM): 0.266 | relative viability (HCC-366; first compound 0.04 µM): 0.169 | relative viability (HCC-366; first compound 0.1265 µM): 0.0937 | relative viability (HCC-366; first compound 0.4 µM): 0.0774 | relative viability (HCC-366; first compound 1.265 µM): 0.0436 | relative viability (HCC-366; first compound 4 µM): 0.0402 | relative viability (LC-2-ad; first compound 0.04 µM): 0.505 | relative viability (LC-2-ad; first compound 0.1265 µM): 0.517 | relative viability (LC-2-ad; first compound 0.4 µM): 0.579 | relative viability (LC-2-ad; first compound 1.265 µM): 0.299 | relative viability (LC-2-ad; first compound 4 µM): 0.255 | relative viability (NCI-H2405; first compound 0.04 µM): 0.765 | relative viability (NCI-H2405; first compound 0.1265 µM): 0.704 | relative viability (NCI-H2405; first compound 0.4 µM): 0.659 | relative viability (NCI-H2405; first compound 1.265 µM): 0.395 | relative viability (NCI-H2405; first compound 4 µM): 0.416 | relative viability (PC-3 [JPC-3]; first compound 0.04 µM): 0.954 | relative viability (PC-3 [JPC-3]; first compound 0.1265 µM): 0.825 | relative viability (PC-3 [JPC-3]; first compound 0.4 µM): 0.882 | relative viability (PC-3 [JPC-3]; first compound 1.265 µM): 0.863 | relative viability (PC-3 [JPC-3]; first compound 4 µM): 0.702 | relative viability (LOU-NH91; first compound 0.04 µM): 0.657 | relative viability (LOU-NH91; first compound 0.1265 µM): 0.614 | relative viability (LOU-NH91; first compound 0.4 µM): 0.513 | relative viability (LOU-NH91; first compound 1.265 µM): 0.376 | relative viability (LOU-NH91; first compound 4 µM): 0.366 | relative viability (NCI-H1755; first compound 0.04 µM): 0.602 | relative viability (NCI-H1755; first compound 0.1265 µM): 0.589 | relative viability (NCI-H1755; first compound 0.4 µM): 0.587 | relative viability (NCI-H1755; first compound 1.265 µM): 0.512 | relative viability (NCI-H1755; first compound 4 µM): 0.495
